Experiment [1] has as its target T1, human EGFR (d746-750/T790M/C797S) (Homo sapiens, UniProt P00533, C797S/DEL746-750/T790M).
T1 construct: human EGFR (d746-750/T790M/C797S) (668-end, SignalChem); purchased SignalChem
In words: EGFR C797S enzyme inhibition activity (ADP-Glo kinase assay). To be noted: purified enzyme 3 ng, ATP 5 μM, 25° C., 1 hour, luminescence; read-out: EGFR DTC Enzyme IC50. Format: biochemical. The protocol: <Experimental Example 1> Evaluation of EGFR C797S Enzyme Inhibition Activity
The compounds according to the present invention were reacted together with purified human EGFR (d746-750/T790M/C797S) (668-end, SignalChem) enzyme and a specific substrate and evaluated for enzyme inhibitory activity as described below. The reaction buffer consisted of 40 mM Tris-HCl pH 7.4, 20 mM MgCl2, 0.5 mg/ml BSA, and 50 μM DTT, and all reactions of the test substances were performed in reaction buffers. The compounds were serially diluted in 12 steps from a 10 mM DMSO stock, and the enzyme activity was measured at the final compound concentrations of 10, 3, 1, 0.3, 0.1, 0.03, 0.01, 0.003, 0.001, 0.0003, 0.0001, and 0 μM. In the assay, human EGFR (d746-750/T790M/C797S) (3 ng) enzyme was reacted with purified ATP (5 μM) and enzyme substrate (0.2 μg) at 25° C. for 1 hour, and the enzyme activity was determined using the in vitro ADP-Glo™ kinase assay (Promega). The enzyme activity inhibition was measured via luminescence by reacting the enzyme activity reaction solution, ADP-Glo reaction solution, and enzyme activity detection solution in a 2:2:1 ratio. Based on the luminescence of the enzyme activity of the solvent control group that was not treated with the compound, the degree of the enzyme activity inhibition depending on the treatment concentration of each compound was calculated, wherein the concentration of each compound that inhibited the enzyme activity by 50% was determined as the IC50 (nM) value, which was obtained using GraphPad Prism 8.4.3 (GraphPad software Inc., San Diego).

Experiment [2] concerns Ba/F3 expressing EGFR Del19/T790M/C797S mutations. The experiment can be described thus: Inhibitory activity on proliferation of Ba/F3 cell overexpressing EGFR C797S (Cell Titer-Glo). Format: cell-based. Particulars: Mus musculus, BaF3; 72 hours treatment, cell growth rate vs control; read-out: Ba/F3 (EGFR DTC) GI50. The protocol:
<Experimental Example 2> Evaluation of Inhibitory Activity on Proliferation of Ba/F3 Cell Overexpressing EGFR C797S
The following experiments were performed to evaluate the inhibitory activity of the compounds according to the present invention on the proliferation of Ba/F3 expressing EGFR Del19/T790M/C797S mutations.
Ba/F3 cells were cultured in RPMI-1640 medium supplemented with 10% fetal bovine serum (FBS), and 3000 cells were seeded into each well of a white clear bottom 96 well plate (Corning) 24 hours prior to compound treatment. The compounds were diluted in dimethyl sulfoxide (3-fold dilution, total of 12 concentrations) and injected at 1 μl each so that the final concentration was […] to 5 μM. After 72 hours post treatment with compounds, living cells were reacted in a 37° C., CO2 incubator for […], followed by 10 minutes at room temperature using Cell Titer-Glo luminescent cell-viability reagent (Promega), and the luminescence intensity thereof was measured using a reader (SynergyNeo2, Biotek). The result values were calculated as a cell growth rate (%) compared to the control group. GI50 values were calculated using the GraphPad Prism version 8.4.3 (GraphPad software Inc., San Diego) program.

What is called IC50 is the point on the concentration scale where inhibition reaches its midpoint.

T1 sequence (P00533 with tags, fused parts or gaps DEL746-750/T790M/C797S): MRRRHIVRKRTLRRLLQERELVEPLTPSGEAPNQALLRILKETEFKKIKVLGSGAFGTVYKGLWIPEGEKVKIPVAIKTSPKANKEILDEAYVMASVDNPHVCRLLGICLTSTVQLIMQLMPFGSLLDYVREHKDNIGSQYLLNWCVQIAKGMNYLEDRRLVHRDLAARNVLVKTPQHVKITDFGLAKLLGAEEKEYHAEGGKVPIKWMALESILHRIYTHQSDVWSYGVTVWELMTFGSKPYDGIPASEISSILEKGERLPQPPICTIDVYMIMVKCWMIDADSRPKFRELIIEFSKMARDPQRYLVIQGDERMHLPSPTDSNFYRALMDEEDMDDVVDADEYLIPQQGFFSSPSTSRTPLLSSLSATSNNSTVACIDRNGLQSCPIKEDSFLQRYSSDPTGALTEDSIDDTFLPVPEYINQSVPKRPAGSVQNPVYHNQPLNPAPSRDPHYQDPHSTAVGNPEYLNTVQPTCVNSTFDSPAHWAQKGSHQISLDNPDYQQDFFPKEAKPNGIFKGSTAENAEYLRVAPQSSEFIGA

Consider `CC(C)Nc1cc(Nc2ccnc(-c3cnn(S(=O)(=O)C4CC4)c3)n2)ncc1C(=O)N1CC(C#N)C1` [Example 9, 1-(6-((2-(1-(cyclopropylsulfonyl)-1H-pyrazol-4-yl)pyrimidin-4-yl)amino)-4-(isopropylamino)nico-tinoyl)azetidine-3-carbonitrile], for which the IC50 in experiment [1] is less than 50 nM. For the same molecule, the GI50 in experiment [2] fell in the range of 500 to 5000 nM.

On to `CC(C)Nc1cc(Nc2ccnc(-c3cnn(S(=O)(=O)C4CC4)c3)n2)ncc1C(=O)NC1CN(C(=O)OC(C)(C)C)C1` [Example 46, tert-butyl 3-(6-((2-(1-(cyclopropylsulfonyl)-1H-pyrazol-4-yl)pyrimidin-4-yl)amino)-4-(isopropylamino)nico-tinamido)azetidine-1-carboxylate], for which the IC50 in experiment [1] lay within 50 to 500 nM. Also, the GI50 in experiment [2] fell in the range of 500 to 5000 nM.

Consider `CC(C)Nc1cc(Nc2ccnc(-c3cnn(S(=O)(=O)C4CC4)c3)n2)ncc1C(=O)NCc1ccc(F)cc1` [Example 61, 6-((2-(1-(cyclopropylsulfonyl)-1H-pyrazol-4-yl)pyrimidin-4-yl)amino)-N-(4-fluorobenzyl)-4-(isopropylamino)nico-tinamide], for which the IC50 in experiment [1] was 50 to 500 nM. The GI50 in experiment [2] was 500 to 5000 nM.

As to `CC(C)Nc1cc(Nc2ccnc(-c3cnn(S(=O)(=O)C4CC4)c3)n2)ncc1C(=O)Nc1cc(CN2CCN(C)CC2)cc(C(F)(F)F)c1` [Example 25, 6-((2-(1-(cyclopropylsulfonyl)-1H-pyrazol-4-yl)pyrimidin-4-yl)amino)-4-(isopropylamino)-N-(3-((4-methylpiperazin-1-yl)methyl)-5-(trifluoromethyl)phe-nyl)nicotinamide], in experiment [1], the IC50 was 50 to 500 nM. Moreover, in experiment [2], the GI50 is 500 to 5000 nM.

Turning to `C[C@H]1CCOc2c(cnn2C)-c2nccc(n2)Nc2cc(c(C(=O)NCCS(C)(=O)=O)cn2)N1` [Example 110, (S)-1^1,6-dimethyl-N-(2-(methylsulfonyl)ethyl)-1^1H-9-oxa-3,5-diaza-2(2,4)-pyrimidina-4(2,4)-pyridina-1(4,5)-pyrazolacyclo-nonaphane-4^5-carboxamide], the IC50 in experiment [1] was less than 50 nM. Also, the GI50 in experiment [2] lay in the range of 500 to 5000 nM.

With `COC(=O)CCNC(=O)c1cnc(Nc2ccnc(-c3cnn(S(=O)(=O)C4CC4)c3)n2)cc1NC(C)C` [Example 50, methyl 3-(6-((2-(1-(cyclopropylsulfonyl)-1H-pyrazol-4-yl)pyrimidin-4-yl)amino)-4-(isopropylamino)nico-tinamido)propanoate], the IC50 in experiment [1] is less than 50 nM. Also, in experiment [2], the GI50 was in the range of 500 to 5000 nM.

Regarding `C[C@H]1CCOc2c(cnn2C)-c2nccc(n2)Nc2cc(c(C(=O)NCC3CCCC3)cn2)N1` [Example 86, (S)-N-(cyclopentylmethyl)-1^1,6-dimethyl-1^1H-9-oxa-3,5-diaza-2(2,4)-pyrimidina-4(2,4)-pyridina-1(4,5)-pyrazolacyclo-nonaphane-4^5-carboxamide], the IC50 in experiment [1] is less than 50 nM. In experiment [2], the GI50 is less than 500 nM.

On to `CC(C)Nc1cc(Nc2ccnc(-c3cnn(S(=O)(=O)C4CC4)c3)n2)ncc1C(=O)NC1CCN(C(=O)OC(C)(C)C)C1` (centres unmarked) [Example 47, tert-butyl 3-(6-((2-(1-(cyclopropylsulfonyl)-1H-pyrazol-4-yl)pyrimidin-4-yl)amino)-4-(isopropylamino)nico-tinamido)pyrrolidine-1-carboxylate], for which the IC50 in experiment [1] lay in the range of 50 to 500 nM. The GI50 in experiment [2] lay within 500 to 5000 nM.

For `CC(C)Nc1cc(Nc2ccnc(-c3cnn(S(=O)(=O)C4CC4)c3)n2)ncc1C(=O)NC1CN(S(C)(=O)=O)C1` [Example 48, 6-((2-(1-(cyclopropylsulfonyl)-1H-pyrazol-4-yl)pyrimidin-4-yl)amino)-4-(isopropylamino)-N-(1-(methylsulfonyl)azeti-din-3-yl)nicotinamide], the IC50 in experiment [1] is less than 50 nM. For the same molecule, the GI50 in experiment [2] is less than 500 nM.

Turning to `CC(C)Nc1cc(Nc2ccnc(-c3cnn(S(=O)(=O)C4CC4)c3)n2)ncc1C(=O)N1CC2(C1)CN(S(C)(=O)=O)C2` [Example 66, (6-((2-(1-(cyclopropylsulfonyl)-1H-pyrazol-4-yl)pyrimidin-4-yl)amino)-4-(isopropylamino)pyri-din-3-yl)(6-(methylsulfonyl)-2,6-diazaspiro[3.3]heptan-2-yl)methanone], the IC50 in experiment [1] was less than 50 nM. In addition, the GI50 in experiment [2] lay in the range of 500 to 5000 nM.

For the molecule `CO[C@H]1CCN(c2nccc(Nc3cc(NC(C)C)c(C(=O)Nc4cccc(N5CCN(C)CC5)c4)cn3)n2)C[C@H]1F` (relative stereo) [Example 41, 6-((2-(cis-3-fluoro-4-methoxypiperidin-1-yl)pyrimidin-4-yl)amino)-4-(isopropylamino)-N-(3-(4-methylpiperaizn-1-yl)phenyl)nicotinamide], in experiment [1], the IC50 is less than 50 nM. Further, the GI50 in experiment [2] was in the range of 500 to 5000 nM.

Take `C[C@H]1CCOc2c(cnn2C)-c2cc(ccn2)Nc2ncc(C(=O)NCCC(F)(F)F)c(n2)N1` [Example 115, (S)-1^1,6-dimethyl-N-(3,3,3-trifluoropropyl)-1^1H-9-oxa-3,5-diaza-4(2,4)-pyrimidina-2(2,4)-pyridina-1(4,5)-pyrazolacyclo-nonaphane-4^5-carboxamide]: the IC50 in experiment [1] was less than 50 nM. Further, the GI50 in experiment [2] is less than 500 nM.

Regarding `CC(C)Nc1cc(Nc2ccnc(-c3cnn(S(=O)(=O)C4CC4)c3)n2)ncc1C(=O)NCCS(C)(=O)=O` [Example 35, 6-((2-(1-(cyclopropylsulfonyl)-1H-pyrazol-4-yl)pyrimidin-4-yl)amino)-4-(isopropylamino)-N-(2-(methylsulfonyl)ethyl) nicotinamide], the IC50 in experiment [1] is less than 50 nM. Also, the GI50 in experiment [2] was 500 to 5000 nM.

As for `C[C@H]1CCOc2c(cnn2C)-c2nccc(n2)Nc2cc(c(C(=O)N3CC(CS(C)(=O)=O)C3)cn2)N1` [Example 105, (S)-(1^1,6-dimethyl-1^1H-9-oxa-3,5-diaza-2(2,4)-pyrimidina-4(2,4)-pyridina-1(4,5)-pyrazolacyclo-nonaphane-4^5-yl)(3-((methylsulfonyl)meth-yl)azetidin-1-yl)methanone], the IC50 in experiment [1] was less than 50 nM. For the same molecule, the GI50 in experiment [2] lay in the range of 500 to 5000 nM.

For the molecule `CC(C)Nc1cc(Nc2ccnc(-c3cnn(S(=O)(=O)C4CC4)c3)n2)ncc1C(=O)NCCCO` [Example 57, 6-((2-(1-(cyclopropylsulfonyl)-1H-pyrazol-4-yl)pyrimidin-4-yl)amino)-N-(3-hydroxypropyl)-4-(isopropylamino)nico-tinamide], the IC50 in experiment [1] is less than 50 nM. In addition, the GI50 in experiment [2] lay in the range of 500 to 5000 nM.

In the case of `CC(C)Nc1cc(Nc2ccnc(-c3cnn(S(=O)(=O)C4CC4)c3)n2)ncc1C(=O)N1CC[C@H](CN2CCN(C)CC2)C1` [Example 65, (R)-(6-((2-(1-(cyclopropylsulfonyl)-1H-pyrazol-4-yl)pyrimidin-4-yl)amino)-4-(isopropylamino)pyri-din-3-)(3-((4-methylpiperazin-1-yl)methyl)pyrrolidin-1-yl)methanone], the concentration for half-maximal inhibition (IC50) in experiment [1] was less than 50 nM. In experiment [2], the GI50 lay in the range of 500 to 5000 nM.

With `CC1CCCOc2c(cnn2C)-c2nccc(n2)Nc2cc(c(C(=O)NCCCC(F)(F)F)cn2)N1` (centres unmarked) [Example 116, 1^1,6-dimethyl-N-(4,4,4-trifluorobutyl)-1^1H-10-oxa-3,5-diaza-2(2,4)-pyrimidina-4(2,4)-pyridina-1(4,5)-pyrazolacyclo-decaphane-4^5-carboxamide], the IC50 in experiment [1] is less than 50 nM. Besides, the GI50 in experiment [2] is less than 500 nM.

`CC(C)Nc1cc(Nc2ccnc(-c3cnn(S(=O)(=O)C4CC4)c3)n2)ncc1C(=O)Nc1cc(N2CCN(C)CC2)cc(C(C)(C)C#N)c1` [Example 40, N-(3-(2-cyanopropan-2-yl)-5-(4-methylpiperazin-1-yl)phenyl)-6-((2-(1-(cyclopropylsulfonyl)-1H-pyrazol-4-yl)pyrimidin-4-yl)amino)-4-(isopropylamino)nico-tinamide]: in experiment [1], the IC50 was in the range of 50 to 500 nM. For the same molecule, in experiment [2], the GI50 was in the range of 500 to 5000 nM.

For `CO[C@H]1CCN(c2nccc(Nc3cc(NC(C)C)c(C(=O)NCCC(F)(F)F)cn3)n2)C[C@H]1F` (relative stereo) [Example 98, 6-((2-(cis-3-fluoro-4-methoxypiperidin-1-yl)pyrimidin-4-yl)amino)-4-(isopropylamino)-N-(3,3,3-trifluoropropyl)nico-tinamide], the IC50 in experiment [1] is less than 50 nM. Further, the GI50 in experiment [2] is less than 500 nM.

Values taken from US20250345329A1, “HETEROARYL DERIVATIVE COMPOUND AND USES THEREOF” (VORONOI, INC., priority 2022, published 2025).
